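How tested: cells in 96-well plates exposed to compound for 48 hours at five concentrations. At the GI50, growth is halved. TGI marks complete inhibition of growth.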
Legend:
Assay in all cases: inhibition of tumour cell growth, NCI panel, 48 h
[1] = system: SR leukemia
[2] = system: HOP-92 NSCLC
[3] = system: KM12 colon
[4] = system: HT29 colon
[5] = system: 786-0 renal
[6] = system: NCI-H460 lung
[7] = system: PC-3 prostate
[8] = system: MDA-MB-231 breast
[9] = system: NCI/ADR-RES ovarian
[10] = system: EKVX NSCLC

SMILES	GI50 [1] [µM]	TGI [1] [µM]	GI50 [2] [µM]	TGI [2] [µM]	GI50 [3] [µM]	TGI [3] [µM]	GI50 [4] [µM]	TGI [4] [µM]	GI50 [5] [µM]	TGI [5] [µM]	GI50 [6] [µM]	TGI [6] [µM]	GI50 [7] [µM]	TGI [7] [µM]	GI50 [8] [µM]	TGI [8] [µM]	GI50 [9] [µM]	TGI [9] [µM]	GI50 [10] [µM]	TGI [10] [µM]
Nc1nc2c(s1)CCc1c-2c(Br)n(Cc2ccccc2)c1Br	3.41	> 100	4.43	23.9	14	33.3	10.9	27.7	7.11	22.9	21.3	52.9	12.8	45.5	14.1	48.7	23.7	87.7	–	–
COc1ccc(C(=O)c2cc(OC)c(OC)c(OC)c2)cc1/C=C/C(=O)c1ccc(OC)c(OC)c1	0.29	10.2	1.69	58	1.42	> 100	–	–	4.71	> 100	2.43	> 100	5.9	> 100	0.659	> 100	0.466	> 100	–	–
Nc1nc(OCc2cc(Br)cs2)c2[nH]cnc2n1	29.5	> 100	3.11	37	23.2	> 100	28.9	> 100	22.2	> 100	25	> 100	21.8	> 100	27.8	> 100	29.5	> 100	24.7	> 100
O=C(c1ccccc1)c1ccc(Oc2ccc([N+](=O)[O-])cc2[N+](=O)[O-])cc1	2.6	7.79	2.87	9.27	2.72	7.34	4.08	20.8	3.46	15.9	8.62	33.3	5.66	> 100	6.74	49.9	4.12	65.3	13.2	38.4
COC(=O)C(=O)C(C(=O)C(=O)Nc1nc2ccc(C)cc2s1)c1nc2ccc([N+](=O)[O-])cc2[nH]c1=O (stereo unspecified)	–	> 100	–	> 100	–	> 100	–	> 100	–	> 100	–	> 100	–	> 100	–	> 100	–	> 100	–	> 100
O=C1Nc2c(C(F)(F)F)cccc2[C@@]1(c1ccc(O)cc1)c1ccc(OC(F)(F)F)cc1	10.5	29.5	0.0136	0.0802	< 0.0143	3.28	0.0177	0.0435	0.0265	1.21	4.19	19.7	< 0.0141	0.388	0.222	18.2	< 0.01	< 0.0105	0.0134	0.0351
Clc1ccc2c(c1)N(c1ncnc3ccc(-c4cnc5[nH]ccc5c4)cc13)CC2	0.595	> 100	2.61	31.5	1.24	18.6	1.03	2.66	1.56	14.5	0.952	12.4	2.28	23.6	2.01	19.3	1.99	69	0.789	34.4
COc1cc(-c2nc3ccccc3s2)ccc1NC(=O)COc1ccc(Cl)cc1	76.5	> 100	1.66	4.99	3.91	> 100	3.66	> 100	1.96	4	2.99	> 100	3.51	> 100	4.98	> 100	3.22	27.6	8.67	> 100
N#Cc1ccccc1NC(=O)C(=O)c1c(O)c2ccccc2oc1=O	–	–	–	> 100	–	> 100	–	> 100	–	> 100	–	> 100	–	> 100	–	> 100	–	> 100	–	> 100
CN(Cc1cc(Br)cc(Br)c1O)Cc1cc(Br)cc(Br)c1O	0.675	28.3	1.42	8.87	3.81	16.4	6.23	19.9	1.42	14.6	0.557	13.2	4.37	25	3.26	19.6	1.83	12.6	3.03	20.2
COc1ccc2c(c1)[n+](=O)c(C(=O)c1ccco1)c(C(F)(F)F)n2[O-]	0.346	> 100	1.83	19.5	4.48	32.6	4.59	> 100	3.83	54.1	1.72	15.6	4.64	> 100	3.01	13.2	2	6.57	3.47	9.81
O=C1c2ccccc2S(=O)(=O)N1CSC(=S)N1CCCCC1	0.266	> 100	> 100	> 100	> 55.7	> 100	> 29.2	> 100	> 100	> 100	5.5	> 100	–	–	> 100	> 100	> 100	> 100	> 100	> 100
Cl.Fc1c[c-]c(-c2ccccn2)c(F)c1.[Pt].c1ccc(P(c2ccccc2)C([PH+](c2ccccc2)c2ccccc2)[PH+](c2ccccc2)c2ccccc2)cc1	2.61	> 100	1.7	5.62	3.55	14.7	3.23	21.6	3.34	20.6	3.08	11.5	2.17	> 100	2.28	7.06	34.9	> 100	3.1	> 100
N/N=C(\C(=O)Nc1ccc(Cl)cc1Cl)C(c1cnc2ccccc2n1)[N+](=O)[O-] (stereo unspecified)	–	–	–	> 100	–	> 100	–	> 100	–	> 100	–	> 100	–	> 100	–	> 100	–	> 100	–	> 100
CN(C)c1ccc(N=C2C=CC(=[N+](C)C)C=C2)cc1	–	–	5.17	74.4	3.91	15	3.74	22.9	30	> 100	5.36	43.7	4.89	22.7	6.41	> 100	19.1	> 100	3.58	40.7
CCCCCCCCN(CCCCCCCC)CCCCCCNc1cc(OC)cc2cccnc12	6.7	59.1	–	–	6.81	20	3.63	15.9	14.6	28.4	8.27	21.6	4.18	19	4.75	15.9	10.4	23.4	6.82	24
O=C(/C(=C\c1ccc([N+](=O)[O-])cc1)S(=O)Cc1ccc(F)cc1)c1ccc(F)cc1 (stereo unspecified)	–	–	1.86	3.98	2.22	5.46	–	–	1.74	3.92	2.13	4.7	1.69	3.47	1.99	4.35	2.43	6.98	1.91	4.54
Cc1ccc(S(=O)(=O)N2CCSCCN(S(=O)(=O)c3ccc(C)cc3)CCN(S(=O)(=O)c3ccc(C)cc3)CC2)cc1	–	–	–	9.06	–	–	–	> 100	–	73.9	–	> 100	–	–	–	59.5	–	> 100	–	> 100
C/C(=C\CCc1ccoc1)CC/C=C(\C)CCCN1CCOCC1	3.12	9.69	1.43	5.49	4.11	16.1	–	–	1.83	4.18	4.79	17.8	2.02	10.5	2.9	12.2	12.3	27.5	–	–
Cc1ccccc1-n1ncc(C(=O)c2ccccc2)c1N	> 25	> 25	4.2	> 25	> 25	> 25	> 25	> 25	> 25	> 25	> 25	> 25	> 25	> 25	> 25	> 25	> 25	> 25	–	–
CC1COc2c(N3CCN(C)CC3)c(F)cc3c(=O)c(C(=O)O)cn1c23 (stereo unspecified)	–	–	0.478	> 100	> 100	> 100	> 100	> 100	> 100	> 100	> 100	> 100	> 100	> 100	81.7	> 100	> 100	> 100	> 100	> 100
